Data as given in article PMC7286788 (ACS infectious diseases, 2019).
Starred links: 1 amine or outer side, 2 acyl side, 3 side chain; linkers in the order of their positions; H or OH if unused. Positions of bridges follow the written chain, without caps; N, C: chain ends. Non-standard residues stand in square brackets, D forms with d. Residues, ends and D or L forms follow the SMILES beside them. ξ: configuration not given here. *: point of attachment. X3 = O=C(C(N[*:1])c1ccc(OC2OC(CO)C(O)C(O)C2OC2OC(CO)C(O)C(O)C2O)cc1)[*:2]; ξPhg(3-Cl-4-OH) = NC(C(=O)O)c1ccc(O)c(Cl)c1; X2 = NC(=O)C(O[*:3])C(N[*:1])C(=O)[*:2]; Hpg = N[CH](C(=O)O)c1ccc(O)cc1; Orn = NCCC[CH](N)C(=O)O; X1 = CC(C)CC=CC=CC(=O)*

Tests used:
[1] = biological target: MurG, P-60 (M. smegmatis) (Mycolicibacterium smegmatis, UniProt A0R016); assay: Competition reaction of UDP-GlcN-C6-FITC; format: biochemical, Mycobacterium smegmatis
MsmegMurG [2] = biological target: T1, MsmegMurG (Mycolicibacterium smegmatis, UniProt A0R016); assay: biochemical; design: species or system Mycobacterium smegmatis; details: read-out: (MsmegMurG) inhibition (%)
MsmegMraY = MsmegMraY (Mycolicibacterium smegmatis, UniProt A0R019); assay: biochemical; format: biochemical, Mycobacterium smegmatis
Sequence of MsmegMraY (A0R019 whole entry): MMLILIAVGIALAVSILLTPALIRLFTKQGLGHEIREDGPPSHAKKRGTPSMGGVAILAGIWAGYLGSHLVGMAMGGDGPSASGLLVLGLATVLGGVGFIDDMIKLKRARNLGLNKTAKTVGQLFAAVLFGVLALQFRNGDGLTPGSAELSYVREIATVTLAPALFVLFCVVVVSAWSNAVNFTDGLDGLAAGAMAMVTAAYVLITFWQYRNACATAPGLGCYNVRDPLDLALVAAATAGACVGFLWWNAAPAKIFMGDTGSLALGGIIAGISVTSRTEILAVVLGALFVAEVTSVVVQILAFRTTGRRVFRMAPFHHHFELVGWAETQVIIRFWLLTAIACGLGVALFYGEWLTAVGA

HyMurG [3] = biological target: T2, HyMurG (Hydrogenivirga sp. 128-5-R1-1, UniProt A8US35); assay: UV-Vis-based MurG assay; format: biochemical; details: for Inhibition of MurG function / lipid II formation: 50–100 μM; for inhibition at 10 µM / inhibition at 50 µM / inhibition at 100 µM: read-out: HthermMurG inhibition (%)
T2 sequence (A8US35 1-350): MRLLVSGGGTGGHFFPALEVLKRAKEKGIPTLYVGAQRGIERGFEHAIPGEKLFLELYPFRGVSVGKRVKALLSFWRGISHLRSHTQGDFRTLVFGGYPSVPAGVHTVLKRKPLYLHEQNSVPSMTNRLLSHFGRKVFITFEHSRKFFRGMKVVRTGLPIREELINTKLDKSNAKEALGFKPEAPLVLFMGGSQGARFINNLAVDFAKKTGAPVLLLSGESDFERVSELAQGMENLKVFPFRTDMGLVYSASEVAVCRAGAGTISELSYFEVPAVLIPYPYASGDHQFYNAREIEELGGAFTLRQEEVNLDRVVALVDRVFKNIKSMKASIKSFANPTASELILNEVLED

MsmegMurG [4] = biological target: T1, MsmegMurG; assay: biochemical; design: species or system Mycobacterium smegmatis
HyMurG [5] = biological target: T2, HyMurG; assay: HPLC-based MurG assay, dose-response, HyMurG; format: biochemical; details: read-out: IC50 HyMurG; HPLC-based method; average of two-three experiments
[6] = Cytotoxicity against Vero cells; details: African green monkey
in vitro = details: African green monkey
MurG = biological target: T3, MurG (Mycolicibacterium smegmatis, UniProt A0R016); assay: MurG kinetic parameters and mode of inhibition, enzyme source not stated; format: biochemical; details: read-out: Km for UDP-GlcN-C6-FITC probe (8); 2e-C55 75 μM
T3 sequence (A0R016 1-385): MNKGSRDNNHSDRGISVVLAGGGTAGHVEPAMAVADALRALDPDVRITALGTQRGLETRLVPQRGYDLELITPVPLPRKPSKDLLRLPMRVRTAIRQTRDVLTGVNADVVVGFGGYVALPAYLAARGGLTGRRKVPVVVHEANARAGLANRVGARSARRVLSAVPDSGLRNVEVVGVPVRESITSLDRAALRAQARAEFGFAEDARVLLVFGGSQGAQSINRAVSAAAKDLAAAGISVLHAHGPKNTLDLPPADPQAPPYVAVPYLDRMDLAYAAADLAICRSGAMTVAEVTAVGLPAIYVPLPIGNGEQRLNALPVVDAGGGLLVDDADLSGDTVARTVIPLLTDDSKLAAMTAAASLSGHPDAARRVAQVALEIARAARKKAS

MurG of M. smegmatis = biological target: T4, MurG of M. smegmatis (Mycolicibacterium smegmatis, UniProt A0R016); assay: Kinetic studies of MurG of M. smegmatis; format: biochemical, Mycobacterium smegmatis; details: P-60 of M. smegmatis; donor 8
T4 sequence (A0R016 1-385): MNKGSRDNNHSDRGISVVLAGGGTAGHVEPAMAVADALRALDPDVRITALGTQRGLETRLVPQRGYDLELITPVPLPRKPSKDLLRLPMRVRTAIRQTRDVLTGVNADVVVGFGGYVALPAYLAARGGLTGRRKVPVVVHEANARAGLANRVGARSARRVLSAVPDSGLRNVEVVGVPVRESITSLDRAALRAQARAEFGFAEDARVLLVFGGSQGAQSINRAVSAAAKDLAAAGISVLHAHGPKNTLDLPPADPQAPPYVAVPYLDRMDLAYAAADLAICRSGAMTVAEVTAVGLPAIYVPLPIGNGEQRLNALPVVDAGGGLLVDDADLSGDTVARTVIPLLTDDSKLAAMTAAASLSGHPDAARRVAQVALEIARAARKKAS

HyMurG [7] = biological target: T2, HyMurG; assay: Kinetic studies with HyMurG; format: biochemical; details: HyMurG; donor 8
HyMraY = assay: Kinetic studies with HyMraY; format: biochemical, Hydrogenivirga sp.
MraY/MurX = MraY/MurX (Mycolicibacterium smegmatis, UniProt A0R019); assay: Substrate tolerance of MurX/MraY, P-60 of M. smegmatis; format: biochemical, Mycobacterium smegmatis; details: P-60 of wild-type M. smegmatis (ATCC607)
Sequence of MraY/MurX (A0R019 whole entry): as the sequence (A0R019 whole entry) above

Molecule: CC(=O)N[C@H]1[C@@H](OP(=O)(O)OP(=O)(O)OC[C@H]2O[C@@H](n3ccc(=O)[nH]c3=O)[C@H](O)[C@@H]2O)O[C@H](CO)[C@@H](O)[C@@H]1O [UDP-GlcNAc]
- IC50 [1]: 8.4 µM
- UDP-GlcNAc required for 100%-disappearance of 9-C55 ([1]; 8 at 375 μM): > 200 µM

Molecule: C=C(C/C=C(\C)CCC=C(C)C)CCC(C)(C)/C=C/CC/C(C)=C\CO[C@H](COP(=O)(O)O[C@H]1O[C@H](C(N)=O)[C@@](C)(O)[C@H](OC(N)=O)[C@H]1O[C@@H]1O[C@H](CO[C@@H]2O[C@H](CO)[C@@H](O)[C@H](O)[C@H]2O)[C@@H](O[C@@H]2O[C@H](C)[C@@H](O[C@@H]3O[C@H](C(=O)NC4=C(O)CCC4=O)[C@H](O)[C@H](O)[C@H]3O)[C@H](O)[C@H]2NC(C)=O)[C@H](O)[C@H]1NC(C)=O)C(=O)O [Moenomycin A, moenomycin A]
- inhibition at 10 µM (MsmegMurG [2]): 0%
- inhibition at 50 µM (MsmegMurG [2]): 0%
- inhibition at 100 µM (MsmegMurG [2]): 15%
- IC50 (MsmegMraY): > 100 µM
- Inhibition of MurG function / lipid II formation (HyMurG [3]): did not inhibit
- inhibition at 10 µM (HyMurG [3]): 0%
- inhibition at 50 µM (HyMurG [3]): 0%
- inhibition at 100 µM (HyMurG [3]): 12%
- IC50 (MsmegMurG [4]): > 100 µM

Molecule: CC(C)CC=CC=CC(=O)NC(CC(N)=O)C(=O)NC1C(=O)NC(c2ccc(O)cc2)C(=O)NC(CCCN)C(=O)NC(C(C)O)C(=O)NC(c2ccc(O)cc2)C(=O)NC(c2ccc(O)cc2)C(=O)NC(C(C)O)C(=O)NC(Cc2ccccc2)C(=O)NC(CCCN)C(=O)NC(c2ccc(OC3OC(CO)C(O)C(O)C3OC3OC(CO)C(O)C(O)C3O)cc2)C(=O)NC(C(C)O)C(=O)NC(c2ccc(O)cc2)C(=O)NCC(=O)NC(CC(C)C)C(=O)NC(C)C(=O)NC(c2ccc(O)c(Cl)c2)C(=O)OC1C(N)=O (stereo not shown) [Ramoplanin A2, ramoplanin A2] (X1-N[X2][Hpg][Orn]T[Hpg][Hpg]TF[Orn][X3]T[Hpg]GLA[ξPhg(3-Cl-4-OH)]; ester 2-C; configuration not given here)
- IC50 (HyMurG [5]): 22.4 µM
- inhibition at 10 µM (MsmegMurG [2]): 0%
- inhibition at 50 µM (MsmegMurG [2]): 100%
- inhibition at 100 µM (MsmegMurG [2]): 100%
- IC50 (MsmegMraY): > 100 µM
- IC50 [6]: > 100 µg/mL
- IC50 (HyMurG [3]; read-out: IC50 against HyMurG via UV-Vis spectrometry, dose-response curves): 22.4 µM

Molecule: O=C(NC(=O)c1ccccc1Cl)Nc1ccc(OC(F)(F)F)cc1 [Triflumuron, triflumuron]
- IC50 (HyMurG [5]): > 100 µM
- inhibition at 10 µM (MsmegMurG [2]): 0%
- inhibition at 50 µM (MsmegMurG [2]): 0%
- inhibition at 100 µM (MsmegMurG [2]): 0%
- IC50 (MsmegMraY): > 100 µM
- Inhibition of MurG function / lipid II formation (HyMurG [3]): did not inhibit
- inhibition at 10 µM (HyMurG [3]): 0%
- inhibition at 50 µM (HyMurG [3]): 0%
- inhibition at 100 µM (HyMurG [3]): 0%
- IC50 (MsmegMurG [4]): > 100 µM

Molecule: CO[C@H]1/C=C/O[C@@]2(C)Oc3c(C)c(O)c4c(O)c(c(/C=N/N5CCN(C)CC5)c(O)c4c3C2=O)NC(=O)/C(C)=C\C=C\[C@H](C)[C@H](O)[C@@H](C)[C@@H](O)[C@@H](C)[C@H](OC(C)=O)[C@@H]1C [Rifampicin]
- IC50 (in vitro): > 100 µg/mL

Molecule: UDP-Glucosamine-C6-FITC [Compound 8]
- Km (MurG): 54 µM

Molecule: C55-lipid II-N^ε-C6-dansyl-FITC [Compound 9-C55]
- Vmax for 9-C55 transformation (MurG of M. smegmatis): 0.56 µM/min
- Vmax for 9-C55 transformation (HyMurG [7]): 0.67 µM/min

Molecule: Park’s nucleotide-N^ε-C6-dansylthiourea [Compound 1e]
- kcat of HyMraY for 1e (HyMraY): 0.38 s⁻¹

Molecule: C/C(=C/COP(=O)(O)O)CCCC(C)CCCC(C)CCCC(C)C (stereo not shown) [(2Z)-phytyl phosphate]
- Formation of lipid I-N^ε-derivatives (MraY/MurX): did not provide the corresponding lipid I derivatives
